The values that follow come from patent publication US5998433A, “Condensed compounds, their production and use” (Takeda Chemical Industries, Ltd., priority 1994, dated 1999).

One test relates to Candida utilis IFO 0619. The test can be described thus: Antifungal activity (agar plate dilution method), organism G. The format is cell-based. The settings on record: Williopsis jadinii, IFO0619, 35° C., 20 hours, pH 7.0. The procedure:
(§1) Determination of Antifungal Activity (Agar Plate Dilution Method)
(§2) RPMI 1640 (Gibco BRL) was dissolved in 0.3 M MOPS buffer, pH 7.0, to obtain a 2-fold dilution; this solution was filtered to remove germ cells (0.45 μm). Separately, 1.4% agar (Wako Pure Chemical Industries) was thermally sterilized (121° C., 15 minutes). This agar was mixed with an equal amount of the above 2-fold diluted RPMI 1640 (0.15 M MOPS, pH 7.0). To 9.9 ml of this RPMI 1640 (0.15 M MOPS, pH 7.0)-0.7% agar medium, 0.1 ml of a 100-fold diluted DMSO solution of the test drug was added; this mixture was prepared as an agar plate in a petri dish 9 cm in diameter. The drug (dissolved in DMSO to 100-fold dilution) was used in a series of 2-fold dilutions of a starting concentration of 64 μg/ml in the agar medium. For drug-free control, an agar medium containing 0.1 ml of DMSO or […] of sterile water was prepared. An inoculum of frozen cells was diluted with physiological saline and spot inoculated onto the agar medium (0.005 ml; 700-15,000 cfu) using a microplanter (Sakuma Seisakusho), followed by cultivation at 35° C. for 20 hours. Antifungal activity was assessed macroscopically; the minimum concentration for complete growth inhibition was expressed as MIC (minimum growth inhibitory concentration).

Test [1] concerns Candida tropicalis IFO 10241. The test can be described thus: Antifungal activity (agar plate dilution method), organism C. The settings on record: IFO10241, 35° C., 20 hours, pH 7.0. The format is cell-based. The procedure:
as §1, §2

Another test has as its system Candida krusei IFO 0584. The test can be described thus: Antifungal activity (agar plate dilution method), organism E. The format is cell-based. The settings on record: Pichia kudriavzevii, IFO0584, 35° C., 20 hours, pH 7.0. On the procedure:
as §1, §2

The subject of the next test is Candida krusei IFO 1162. The test can be described thus: Antifungal activity (agar plate dilution method), organism F. The test is classed as cell-based. Conditions: Pichia kudriavzevii, IFO1162, 35° C., 20 hours, pH 7.0. On the procedure:
as §1, §2

In test [2] the test system is Aspergillus niger IFO 4414. The test can be described thus: Antifungal activity (agar plate dilution method), organism I. The test is classed as cell-based. Conditions: IFO4414, 35° C., 20 hours, pH 7.0. On the procedure:
as §1, §2

In test [3] the test system is Candida tropicalis IFO 0587. The experiment in a line: Antifungal activity (agar plate dilution method), organism B. The format is cell-based. The settings on record: IFO0587, 35° C., 20 hours, pH 7.0. On the procedure:
as §1, §2

In test [4] the test system is Candida glabrata IFO 0622. The test can be described thus: Antifungal activity (agar plate dilution method), organism D. The format is cell-based. The settings on record: Nakaseomyces glabratus, IFO0622, 35° C., 20 hours, pH 7.0. On the procedure: as §1, §2
Test [5] has as its system Candida albicans IFO 0583. The experiment in a line: Antifungal activity (agar plate dilution method), organism A. The format is cell-based. The settings on record: IFO0583, 35° C., 20 hours, pH 7.0. On the procedure: as §1, §2
In test [6] the test system is Aspergillus fumigatus IFO 6344. The experiment in a line: Antifungal activity (agar plate dilution method), organism H. The format is cell-based. The settings on record: IFO6344, 35° C., 20 hours, pH 7.0. The procedure: as §1, §2
The nature of test [7]: Plasma HDL-cholesterol-elevating effect in Wistar fatty rats. Conditions: for HDL-cholesterol / Total cholesterol / Glucose / Triglyceride / Non-HDL-cholesterol: plasma, 1 week, stomach tube, mean ± standard deviation; for HDL-cholesterol: control 92.4 ± 9.2; for Total cholesterol: control 154 ± 13; for Glucose: control 285 ± 45; for Triglyceride: control 694 ± 192; for Non-HDL-cholesterol: total minus HDL, control 62.0 ± 12.5. The test is classed as in vivo, Female Wistar fatty rats. From the text: Plasma HDL-cholesterol-elevating Effect in Wistar Fatty Rats
Female Wistar fatty rats (19 weeks of age, bred in Experimental Animals Unit, Takeda Chemical Industries, Ltd.) were given a 0.5% methyl-cellulosesolution of compound 31 by a stomach tube for 1 week. Blood was collected via the orbital sinus under non-fasting conditions; plasma total cholesterol and HDL-cholesterol were enzymatically determined using a commercial kit (produced by Wako Pure Chemical Industries, Ltd.). Non-HDL-cholesterol levels were obtained by subtracting HDL-cholesterol from total cholesterol levels. Triglyceride and glucose were also enzymatically determined using commercial kits (both produced by Iatron Laboratories, Inc.).

Where a name gives a salt, the structure may show the parent alone.

One may read the MIC as the lowest concentration found to suppress growth. A higher MIC goes with a less susceptible organism. Consider `CN(C)Cc1cc2c(o1)CCN(C(=O)CCCCCc1ccc(F)cc1)C2` [Example 28, 1-(2-dimethylaminomethyl-6,7-dihydro-4H-furo[3,2-c]pyridin-5-yl)-6-(4-fluorophenyl)hexan-1-one hydrochloride], for which the MIC in the test on Candida utilis IFO 0619 was 2 µg/mL; in test [1], 32 µg/mL; against Candida krusei IFO 0584, 4 µg/mL; against Candida krusei IFO 1162, 8 µg/mL; in test [2] it was 4 µg/mL; in test [3], 2 µg/mL. Moreover, the MIC in [4] worked out at 16 µg/mL; in test [5] it was 8 µg/mL; in [6], 4 µg/mL.
With `CN(C)Cc1cc2c(o1)CCN(C(=O)CCCCSc1ccccc1)C2` [Example 44, 1-(2-dimethylaminomethyl-6,7-dihydro-4H-furo[3,2-c]pyridin-5-yl)-5-phenylthiopentan-1-one hydrochloride], the MIC amounted to 4 µg/mL against Candida utilis IFO 0619; 8 µg/mL in [1]; 8 µg/mL against Candida krusei IFO 0584; 16 µg/mL with Candida krusei IFO 1162; 8 µg/mL in [2]; 8 µg/mL in test [3]. The values for the MIC in test [4], in test [5] and in test [6] were 32 µg/mL, 16 µg/mL and 8 µg/mL, respectively.
For the compound `CN(C)Cc1cc2c(o1)CCN(C(=O)OCCCCc1ccccc1)C2` [Example 48, N,N-dimethyl-[5-(4-phenylbutoxycarbonyl)-4,5,6,7-tetrahydrofuro[3,2-c]pyridin-2-ylmethyl]amine hydrochloride], the MIC against Candida utilis IFO 0619 came out at 2 µg/mL; in test [1], 64 µg/mL; against Candida krusei IFO 0584, 8 µg/mL; in the test on Candida krusei IFO 1162, 16 µg/mL; in test [2], 16 µg/mL; in test [3], 8 µg/mL. The MIC in [4] came out at 32 µg/mL; in [5] it was 16 µg/mL; in [6] it was 32 µg/mL.
Consider `CN(C)Cc1cc2c(o1)CN(C(=O)c1ccc(/C=C\c3ccccc3)cc1)CC2` [Example 33, (Z)-N,N-dimethyl-[6-(4-stilbenecarbonyl)-4,5,6,7-tetrahydrofuro[2,3-c]pyridin-2-ylmethyl]amine hydrochloride], for which the MIC with Candida utilis IFO 0619 was 4 µg/mL; in test [1], 64 µg/mL; against Candida krusei IFO 0584, 8 µg/mL; with Candida krusei IFO 1162 it was 16 µg/mL; in [2], 0.25 µg/mL; in test [3], 16 µg/mL. Also, the MIC in test [4] came to 16 µg/mL; in [5], 32 µg/mL; in test [6], 0.5 µg/mL.
As to `CN(C)Cc1cc2c(o1)CN(C(=O)CCCCSc1ccccc1)CC2` [Example 43, 1-(2-dimethylaminomethyl-5,7-dihydro-4H-furo[2,3-c]pyridin-6-yl)-5-phenylthiopentan-1-one hydrochloride], the MIC came out at 2 µg/mL in the test with Candida utilis IFO 0619; 8 µg/mL in test [1]; 16 µg/mL with Candida krusei IFO 0584; 16 µg/mL against Candida krusei IFO 1162; 4 µg/mL in [2]; 2 µg/mL in test [3]. The MIC amounted to 16 µg/mL in test [4], 8 µg/mL in [5] and 8 µg/mL in test [6].
Consider `CN(C)Cc1cc2c(o1)CCN(C(=O)c1ccc(C(=O)c3ccc(Cl)cc3)cc1)C2` [Example 32, N,N-dimethyl-[5-[4-(4-chlorobenzoyl)benzoyl]-4,5,6,7-tetrahydrofuro[3,2-c]pyridin-2-ylmethyl]amine hydrochloride], for which the MIC in the test with Candida utilis IFO 0619 is 8 µg/mL; in [1], 32 µg/mL; in the test with Candida krusei IFO 0584 it was 32 µg/mL; against Candida krusei IFO 1162, 32 µg/mL; in test [2], 2 µg/mL; in [3] it was 8 µg/mL. Besides, the minimum inhibitory concentration (MIC) in test [4] was 32 µg/mL; in test [5], 16 µg/mL; in test [6], 2 µg/mL.
With `CN(C)Cc1cc2c(o1)CCN(C(=O)CCCCCc1ccccc1)C2` [Example 6, 1-(2-dimethylaminomethyl-6,7-dihydro-4H-furo[3,2-c]pyridin-5-yl)-6-phenylhexan-1-one hydrochloride], the MIC in the test on Candida utilis IFO 0619 was 2 µg/mL; in [1], 16 µg/mL; in the test on Candida krusei IFO 0584 it was 4 µg/mL; in the test with Candida krusei IFO 1162, 16 µg/mL; in test [2] it was 8 µg/mL; in test [3] it was 2 µg/mL. The MIC in [4] was 32 µg/mL; in test [5] it was 16 µg/mL; in test [6], 16 µg/mL.
As for `CCCCCCCc1ccc(C(=O)N2CCc3cc(CN(C)C)oc3C2)cc1` [Example 21, N,N-dimethyl-[6-(4-heptylbenzoyl)-4,5,6,7-tetrahydrofuro[2,3-c]pyridin-2-ylmethyl]amine hydrochloride], the MIC in the test on Candida utilis IFO 0619 was determined as 1 µg/mL; in test [1], 2 µg/mL; with Candida krusei IFO 0584 it was 1 µg/mL; with Candida krusei IFO 1162, 2 µg/mL; in [2], 1 µg/mL; in [3], 2 µg/mL. For the same compound, the MIC was determined as 4 µg/mL in test [4], 2 µg/mL in test [5] and 1 µg/mL in test [6].
Turning to `CN(C)Cc1cc2c(o1)CN(C(=O)c1ccc(C(=O)c3ccc(Cl)cc3)cc1)CC2` [Example 31, N,N-dimethyl-[6-[4-(4-chlorobenzoyl)benzoyl]-4,5,6,7-tetrahydrofuro[2,3-c]pyridin-2-ylmethyl]amine hydrochloride], the MIC in the test on Candida utilis IFO 0619 was found to be 4 µg/mL; in test [1], 16 µg/mL; in the test with Candida krusei IFO 0584, 16 µg/mL; against Candida krusei IFO 1162, 32 µg/mL; in test [2], 0.5 µg/mL; in test [3], 2 µg/mL. Besides, the MIC in [4] came out at 64 µg/mL; in [5], 8 µg/mL; in test [6], 0.5 µg/mL. Also, the “Plasma HDL-cholesterol level” value in test [7] (in words, Wistar fatty rats) is given as “increased significantly, depending on dose”. Besides, the Plasma glucose level result in test [7] (in words, Wistar fatty rats) is on record as “not affected”. Also, the “Plasma non-HDL-cholesterol level” value in test [7] (in words, Wistar fatty rats) is listed as “not affected”. Further, in test [7] (in words, Wistar fatty rats), the “Plasma total cholesterol level” value is recorded as “increased significantly, depending on dose”. The Plasma triglyceride level entry in test [7] (in words, Wistar fatty rats) is “not affected”. Besides, the HDL-cholesterol was 113 ± 15.4 mg/dL in [7] (0.1 mg/kg-day, p<0.05) and 135 mg/dL in test [7] (0.3 mg/kg-day, p<0.05). Moreover, the Total cholesterol in test [7] (0.1 mg/kg-day) came out at 175 ± 21 mg/dL; in [7] (0.3 mg/kg-day, p<0.05) it was 192 ± 24 mg/dL. Also, the Glucose in [7] (0.1 mg/kg-day) came to 251 ± 72 mg/dL; in test [7] (0.3 mg/kg-day), 242 ± 39 mg/dL. The Triglyceride in test [7] (0.1 mg/kg-day) was 599 ± 195 mg/dL; in [7] (0.3 mg/kg-day), 538 ± 155 mg/dL. Further, the Non-HDL-cholesterol in test [7] (0.1 mg/kg-day) worked out at 62.5 ± 7.9 mg/dL; in test [7] (0.3 mg/kg-day), 57.1 ± 10.7 mg/dL.
Take `CN(C)Cc1cc2c(o1)CN(C(=O)CCCCCc1ccc(F)cc1)CC2` [Example 27, 1-(2-dimethylaminomethyl-5,7-dihydro-4H-furo[2,3-c]pyridin-6-yl)-6-(4-fluorophenyl)hexan-1-one hydrochloride]: the MIC against Candida utilis IFO 0619 came to 2 µg/mL; in [1], 64 µg/mL; against Candida krusei IFO 0584, 4 µg/mL; against Candida krusei IFO 1162 it was 8 µg/mL; in [2] it was 2 µg/mL; in test [3], 32 µg/mL. The MIC turned out to be 16 µg/mL in test [4], 16 µg/mL in test [5] and 2 µg/mL in [6].
